The results in this text go back to US7465814B2, “Sulfonate compound and fluorescent probe using the same” (priority 2003, dated 2008).

A short description of data set [1]: Fluorescent response to XO-HPX system, 96-well microplate (Table 1). The data set is classed as biochemical. Particulars: relative fluorescence intensity, blank = 10, probe 21.3 μM, 10 minutes. The protocol:
(§1) Moreover, in other conditions than those of the above-described tests, reactivity of all of the compounds 1a to 1d with H2O2, other various kinds of nucleophilic agents, reducing agents and the like also was tested, respectively. More specifically, fluorescent responses of 1a to 1d with respect to a XO-HPX system, a XO-HPX-SOD system, H2O2, ascorbic acid, 1,4-hydroquinone, propylamine, diethylamine, glucose, esterase, a cytochrome P450 reductase+NADPH system, and a diaphorase+NADH system were measured, respectively. Operational processes thereof will be described below. Firstly, 1a to 1d and the above-described reagents were dissolved in HEPES of 10 mM having a pH of 7.4 so as to prepare solutions, respectively. Next, a 96 wellmicroplate was provided, where any of the solutions of 1a to 1d (25 μM, 170 μL) was poured into each of the wells, and furthermore, 30 μL of a blank solution or 30 μL of the solution of the reagent to be reacted therewith was added thereto. Final concentrations of the solutions in the wells were adjusted so that concentrations of the solutions of 1a to 1d respectively could be 21.3 μM, that of XO could be 13.1 mU/mL, those of HPX, H2O2, ascorbic acid, 1,4-hydroquinone, propylamine, diethylamine, glucose, NADPH and NADH respectively could be 50 μM, that of cytochrome P450 reductase could be 68 mU/mL, that of diaphorase could be 65 mU/mL, and that of esterase could be 0.5 U/mL, respectively. Then, after they reacted in the wells at 37° C. for 10 minutes, fluorescent responses were measured respectively. Fluorescence intensity measurement was conducted by using an ETC-272 Peltier thermostatted single cell holder (trade name) manufactured by JASCO Corporation or a SpectraMax GeminiEM fluorescence plate reader (trade name) manufactured by Molecular Devices Corporation provided with a FP-750 spectrofluorometer (trade name) manufactured by JASCO Corporation, and by setting excitation wavelengths and emission wavelengths so that those of 1a, 1b and 1c respectively could be 485 nm and 515 nm, and those of 1d respectively could be 511 nm and 540 nm.

A short description of data set [2]: Fluorescent response to 1,4-hydroquinone (Table 1). The data set is classed as biochemical. The conditions noted are these: relative fluorescence intensity, blank = 10; probe 21.3 μM, 1,4-hydroquinone 50 μM, 37° C., 10 minutes. On the procedure:
as §1

Data set [3] concerns neutrophils stimulated by phorbol myristate acetate (PMA). Nature of the data set: Superoxide detection in PMA-stimulated neutrophils (FIG. 2, FIG. 3). Particulars: probe 25 μM solution 50 μL, PMA 0.64 μM solution 50 μL, 37° C., 120 minutes. The data set is classed as cell-based, human. An excerpt:
It is known that, if neutrophils are stimulated by phorbol ester, superoxide is produced. […] A specific testing method will be described below.
Firstly, whole blood donated by a good-health volunteer was heparinized, and it was subjected to centrifugal separation after adding a Mono-Poly resolving medium manufactured by Dainippon Pharmaceutical Co. Ltd. thereto. After the separation, cells were washed with PBS (−) twice, were suspended again at a concentration of 1.0×10^6 or 1.0×10^5 cells/mL by using PBS (+), and were maintained under an ice-cold condition until they were used. […] Fluorescence intensity measurement was conducted immediately (measurement at the time 0), and thereafter, incubation was conducted at 37° C. for 120 minutes. During the incubation, a change of the fluorescence intensity of the cells was measured once every 30 minutes. All of the measurements were conducted by using a CytoFluor II multiwell fluorescence plate reader (trade name) manufactured by PerSeptive Biosystems, Inc. in the U.S., by setting an excitation filter and an emission filter at 485±20 nm and 530±25 nm, respectively.
A horizontal axis of the graph denotes an incubation time (minute), and a vertical axis thereof denotes a fluorescence intensity (au). […]

Data set [4] is described as follows: Fluorescent response to diethylamine (Table 1). The data set is classed as biochemical. The conditions noted are these: relative fluorescence intensity, blank = 10; probe 21.3 μM, diethylamine 50 μM, 37° C., 10 minutes. The protocol: as §1
Data set [5] is described as follows: Reactivity with superoxide and glutathione (FIG. 4). The format is biochemical. Particulars: same conditions as 1-3 Superoxide-selectivity (2). The protocol:
as §1
The reactivity of each of the compounds 1d, 5a, 6a, 7 and 8a with respect to superoxide and glutathione (GSH) that is a kind of thiol was tested under the same conditions as those of [1-3. Superoxide-selectivity (2)] in Example 1. […] A vertical axis thereof denotes a fluorescence intensity, which is represented in % of control.

The nature of the next data set: Voltammetry measurement. The format is physicochemical. Particulars: CH3CN—H2O (3:1) containing Et4NClO4.
The test system of a further data set is esterase. Nature of the data set: Fluorescent response to esterase (Table 1). The data set is classed as biochemical. Particulars: relative fluorescence intensity, blank = 10; probe 21.3 μM, esterase 0.5 U/mL, 37° C., 10 minutes. The protocol: as §1

Take `O=C1OC2(c3ccccc31)c1cc(F)c(OS(=O)(=O)c3ccc([N+](=O)[O-])cc3[N+](=O)[O-])c(F)c1Oc1c2cc(F)c(OS(=O)(=O)c2ccc([N+](=O)[O-])cc2[N+](=O)[O-])c1F` [Compound 1d]: the “fluorescent response, XO—HPX” value in data set [1] (XO 13.1 mU/mL, HPX 50 μM, HEPES pH 7.4, 37° C.) came to 554. Further, the “fluorescent response, XO—HPX—SOD” value in data set [1] (XO-HPX with SOD, 37° C.) is 60. For the same compound, the “fluorescent response, 1,4-hydroquinone” value in data set [2] was 11. For the same compound, in data set [3], the “detection of superoxide from PMA-stimulated neutrophils” value is listed as “could detect superoxide with high sensitivity in a cell system also”. For the same compound, the “fluorescent response, diethylamine” value in data set [4] amounted to 11. Further, the “selectivity (specificity), superoxide versus glutathione, FIG. 4” value in data set [5] is recorded as “excellent superoxide-selectivity”. In addition, the cathode response entry in “Voltammetry measurement” is recorded as “about −0.5 V vs SCE”. Further, the “fluorescent response, esterase” value in the data set with esterase was 15.
